For this experiment, the target named is T1, BTK-WT (Homo sapiens, UniProt Q06187).
T1 construct: purified from insect cells as a full-length construct containing an N-terminal 6X-His tag; His6 (N); made in house; host or cells: insect cells (baculovirus Sf21 in Method B)
In words: Btk in vitro inhibitory activity (one of Method A TR-FRET, Method B electrophoretic mobility shift, Method C radiometric filter binding). The format is biochemical. To be noted: D-compounds panel data; read-out: IC50 BTK-WT. A general note: A gel shift assay detects complexes by their altered migration in electrophoresis.

The structures appear in SMILES notation. pIC50: −log10 of the molar value. A value given as a limit tells only on which side of the number the result lay.

T1 sequence (Q06187 whole entry): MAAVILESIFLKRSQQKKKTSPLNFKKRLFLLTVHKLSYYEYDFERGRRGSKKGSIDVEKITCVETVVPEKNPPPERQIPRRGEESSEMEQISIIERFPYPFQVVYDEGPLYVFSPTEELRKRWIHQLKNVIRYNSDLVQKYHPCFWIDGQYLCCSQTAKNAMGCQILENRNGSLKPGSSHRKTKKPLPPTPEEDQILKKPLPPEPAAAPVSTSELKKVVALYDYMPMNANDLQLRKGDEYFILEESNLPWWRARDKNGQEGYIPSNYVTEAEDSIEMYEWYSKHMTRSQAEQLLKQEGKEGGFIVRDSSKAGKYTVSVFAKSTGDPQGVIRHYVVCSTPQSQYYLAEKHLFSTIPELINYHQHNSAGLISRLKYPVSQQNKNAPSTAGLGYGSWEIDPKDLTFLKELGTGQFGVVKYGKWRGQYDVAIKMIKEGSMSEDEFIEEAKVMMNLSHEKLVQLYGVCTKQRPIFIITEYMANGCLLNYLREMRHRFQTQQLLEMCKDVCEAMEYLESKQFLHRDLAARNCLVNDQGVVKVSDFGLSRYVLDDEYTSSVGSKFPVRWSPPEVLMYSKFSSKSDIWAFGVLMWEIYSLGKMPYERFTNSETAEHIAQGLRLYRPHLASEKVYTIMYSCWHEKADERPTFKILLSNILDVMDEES

With `CC(C)n1nnc2cc(C(=O)N[C@@H]3CCCN(c4cnc(C(N)=O)c(Nc5cnn(C)c5)n4)[C@@H]3C)ccc21` [Example D-255, N-[(2R,3R)-1-{5-carbamoyl-6-[(1-methyl-i H-pyrazol-4-yl)amino]pyrazin-2-yl}-2-methylpiperidin-3-yl]-1-(propan-2-yl)-1H-1,2,3-benzotriazole-5-carboxamide], the negative-log IC50 (pIC50) (in general, the IC50 on a negative log10 scale, so that one unit is a factor of ten) was no less than 8.00. As to `CC(=O)N1CCC(c2ccc(Nc3nc(N4CCC[C@@H](NC(=O)c5ccc(C6CC6)cc5)[C@H]4C)cnc3C(N)=O)cc2)CC1` [Example D-296, 3-{[4-(1-acetylpiperidin-4-yl)phenyl]amino}-5-[(2R,3R)-3-(4-cyclopropylbenzamido)-2-methylpiperidin-1-yl]pyrazine-2-carboxamide], the negative-log IC50 (pIC50) was no less than 8.00. Next, `C[C@@H]1[C@H](NC(=O)c2ccc(C3CC3)cc2)CCCN1c1cnc(C(N)=O)c(Nc2cnn(C3CCC(F)(F)CC3)c2)n1` [Example D-307, 5-[(2R,3R)-3-(4-cyclopropylbenzamido)-2-methylpiperidin-1-yl]-3-{[1-(4,4-difluorocyclohexyl)-1H-pyrazol-4-yl]amino}pyrazine-2-carboxamide]: no less than 8.00; `C[C@@H]1[C@H](NC(=O)c2ccc(C(C)(C)C)cc2)CCCN1c1cnc(C(N)=O)c(Nc2cnn(C)c2)n1` [Example D-22, 5-[(2R,3R)-3-(4-tert-butylbenzamido)-2-methylpiperidin-1-yl]-3-[(1-methyl-1H-pyrazol-4-yl)amino]pyrazine-2-carboxamide]: no less than 8.00; `C[C@@H]1[C@H](NC(=O)c2ccc(C3CC3)cc2C(F)(F)F)CCCN1c1cnc(C(N)=O)c(Nc2cnn(C)c2)n1` [Example D-25, 5-[(2R,3R)-3-[4-cyclopropyl-2-(trifluoromethyl)benzamido]-2-methylpiperidin-1-yl]-3-[(1-methyl-1H-pyrazol-4-yl)amino]pyrazine-2-carboxamide]: 7.00 to 8.00.

On to `C[C@@H]1[C@H](NC(=O)c2ccc(C3CC3)cc2)CCCN1c1cnc(C(N)=O)c(Nc2cnn(C3CCN(C(=O)C4CC4)CC3)c2)n1` [Example D-288, 3-{[1-(1-cyclopropanecarbonylpiperidin-4-yl)-1H-pyrazol-4-yl]amino}-5-[(2R,3R)-3-(4-cyclopropylbenzamido)-2-methylpiperidin-1-yl]pyrazine-2-carboxamide], for which the pIC50 was no less than 8.00.

These data come from patent US20210070748A1, “INHIBITORS OF BRUTONS TYROSINE KINASE” (Pharmacyclics LLC, priority 2015, published 2021).
